Strand notation (5' to 3'): a small letter for the sugar, then the base; units joined by * are phosphorothioate-linked, units joined directly phosphodiester-linked; [ ] holds rarer units or linkages, { } end groups; capitals alone tell only the bases. e = 2'-O-(2-methoxyethyl) (MOE); k = constrained ethyl (cEt); [5mC] = 5-methylcytosine; d = 2'-deoxy (DNA)
System: human PKK mRNA
Experiment: Antisense inhibition of human PKK mRNA in HepaRG cells, 1,000 nM, MOE/deoxy/cEt oligonucleotides (Example 3)
Format: cell-based
Method in brief: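 Readout is percent PKK mRNA reduction against untreated controls, by real-time PCR (RTS3454) adjusted for total RNA via RIBOGREEN. Oligonucleotides, phosphorothioate gapmers of 16 nucleosides with cEt, MOE and deoxy sugars, were delivered at 1,000 nM by electroporation to 20,000 HepaRG cells/well for roughly 24 h.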

[1] = Table 19, HepaRG cells, electroporation with 1,000 nM antisense oligonucleotide, approximately 24 hours, PKK mRNA by RT-PCR (RTS3454), relative to untreated control cells
[2] = Table 30, human PKK mRNA, HepaRG cells, 1,000 nM antisense oligonucleotide
[3] = HepaRG cells, electroporation with 1,000 nM antisense oligonucleotide, approximately 24 hours, primer probe set RTS3454, relative to untreated control cells, experiment of Table 23
[4] = PKK mRNA, HepaRG cells, 1,000 nM antisense oligonucleotide, Table 31
[5] = HepaRG cells, electroporation with 1,000 nM antisense oligonucleotide, approx. 24 hours, PKK mRNA by RT-PCR (RTS3454), relative to untreated control cells, Table 26 experiment
[6] = Table 20, HepaRG cells, electroporation with 1,000 nM antisense oligonucleotide, approximately 24 hours, PKK mRNA by RT-PCR (RTS3454), relative to untreated control cells
[7] = Table 22 experiment, HepaRG cells, electroporation with 1,000 nM antisense oligonucleotide, approx. 24 hours, PKK mRNA by RT-PCR (RTS3454), relative to untreated control cells
[8] = HepaRG cells, electroporation with 1,000 nM antisense oligonucleotide, approx. 24 hours, PKK mRNA by RT-PCR (RTS3454), relative to untreated control cells, Table 25 experiment
[9] = Table 27, HepaRG cells, 1,000 nM antisense oligonucleotide, human PKK mRNA
[10] = HepaRG cells, 1,000 nM antisense oligonucleotide, Table 29
[11] = Table 28, HepaRG cells, 1,000 nM antisense oligonucleotide, human PKK mRNA

Substance: 548098 (antisense eA*eG*kA*d[5mC]*dA*d[5mC]*d[5mC]*dA*dG*dG*dT*dT*dG*k[5mC]*kT*e[5mC]) [compound 548098]
- % inhibition [1]: 0%

Substance: 547791 (antisense eA*e[5mC]*kT*dG*dT*dA*dG*d[5mC]*dA*dA*dA*d[5mC]*dA*kA*kG*eG) [compound 547791]
- % inhibition (Table 21 experiment, HepaRG cells, electroporation with 1,000 nM antisense oligonucleotide, approx. 24 hours, PKK mRNA by RT-PCR (RTS3454), relative to untreated control cells): 49%

Substance: 548405 (e[5mC]*eG*kG*dA*d[5mC]*d[5mC]*dT*dT*d[5mC]*dA*dT*d[5mC]*dT*kT*k[5mC]*eA; antisense) [compound 548405]
- % inhibition [2]: 35%

Substance: 547967 (antisense eG*eG*k[5mC]*dA*dG*dG*dG*dT*dT*d[5mC]*dA*dG*dG*kT*kA*eA) [compound 547967]
- % inhibition [3]: 25%

Substance: 548150 (e[5mC]*eA*kG*dA*d[5mC]*dA*dT*dT*dG*dT*d[5mC]*d[5mC]*dT*k[5mC]*kA*eG; antisense) [compound 548150]
- % inhibition [1]: 60%

Substance: 548651 (antisense eA*eG*kT*d[5mC]*dT*d[5mC]*dT*dT*dT*d[5mC]*d[5mC]*dT*dA*k[5mC]*k[5mC]*e[5mC]) [compound 548651]
- % inhibition [4]: 61%

Substance: 548118 (antisense eT*e[5mC]*kT*d[5mC]*dA*dT*dG*d[5mC]*dT*dG*dG*dT*dG*kA*k[5mC]*eT) [compound 548118]
- % inhibition [1]: 47%

Substance: 548050 (eA*eG*kG*d[5mC]*dG*dA*dT*dA*dT*d[5mC]*dA*dT*dG*kA*kT*eT; antisense) [compound 548050]
- % inhibition (HepaRG cells, electroporation with 1,000 nM antisense oligonucleotide, approximately 24 hours, primer probe set RTS3454, relative to untreated control cells, experiment of Table 24): 37%

Substance: 548261 (antisense eT*eT*k[5mC]*dA*dG*dG*dG*dA*dG*dT*dG*dA*dT*kG*kT*e[5mC]) [compound 548261]
- % inhibition [5]: 36%

Substance: 547914 (eG*eG*k[5mC]*dA*dA*d[5mC]*dA*dT*d[5mC]*d[5mC]*dA*d[5mC]*dA*kT*k[5mC]*eT; antisense) [compound 547914]
- % inhibition [6]: 74%
- % inhibition [7]: 63%

Substance: 548273 (antisense eA*eA*kT*d[5mC]*dT*d[5mC]*d[5mC]*dA*d[5mC]*d[5mC]*d[5mC]*d[5mC]*d[5mC]*kG*kA*eA) [compound 548273]
- % inhibition [5]: 5%

Substance: 548222 (eA*eA*kT*d[5mC]*dA*dT*dG*d[5mC]*d[5mC]*dT*dT*dG*dT*kG*kG*eG; antisense) [compound 548222]
- % inhibition [8]: 32%

Substance: 548637 (antisense eG*e[5mC]*kT*dG*dA*dT*d[5mC]*dT*dT*d[5mC]*dT*dA*dA*kT*kG*e[5mC]) [compound 548637]
- % inhibition [4]: 38%

Substance: 548666 (antisense eT*e[5mC]*kT*d[5mC]*d[5mC]*dA*dT*dA*dG*dT*dG*dA*dG*kA*k[5mC]*eG) [compound 548666]
- % inhibition [4]: 1%

Substance: 548441 (antisense eT*e[5mC]*k[5mC]*dT*dA*dT*dA*dA*d[5mC]*dA*dG*dT*dA*kT*k[5mC]*eA) [compound 548441]
- % inhibition [2]: 42%

Substance: 548177 (eA*eG*kA*dT*d[5mC]*dT*d[5mC]*dA*dG*dT*dT*dG*d[5mC]*kG*kA*e[5mC]; antisense) [compound 548177]
- % inhibition [8]: 45%

Substance: 548389 (eT*eT*kG*dA*dG*dG*dA*dA*dA*dG*dA*d[5mC]*d[5mC]*kT*kG*e[5mC]; antisense) [compound 548389]
- % inhibition [2]: 11%

Substance: 548264 (antisense e[5mC]*eA*kG*dT*d[5mC]*d[5mC]*dA*dA*dA*dA*dA*dT*d[5mC]*k[5mC]*k[5mC]*eT) [compound 548264]
- % inhibition [5]: 60%

Substance: 548455 (e[5mC]*eA*k[5mC]*d[5mC]*dG*dT*dA*d[5mC]*dT*dA*dG*dT*dT*kT*k[5mC]*e[5mC]; antisense) [compound 548455]
- % inhibition [2]: 64%

Substance: 548314 (eA*e[5mC]*kA*dA*d[5mC]*d[5mC]*dT*dG*dT*d[5mC]*d[5mC]*dA*dT*kT*k[5mC]*e[5mC]; antisense) [compound 548314]
- % inhibition [9]: 43%

Substance: 548603 (eG*eA*kG*dA*dT*dT*dG*dG*dT*dG*dG*dT*dG*kG*kG*eT; antisense) [compound 548603]
- % inhibition [10]: 35%

Substance: 548376 (eG*e[5mC]*k[5mC]*dT*dT*dT*dG*dA*d[5mC]*d[5mC]*dT*dT*dT*k[5mC]*kG*e[5mC]; antisense) [compound 548376]
- % inhibition [9]: 65%

Substance: 548074 (e[5mC]*e[5mC]*kT*dT*dT*d[5mC]*dT*d[5mC]*d[5mC]*dT*dT*d[5mC]*dG*kA*kG*eA; antisense) [compound 548074]
- % inhibition [1]: 0%

Substance: 548204 (eT*e[5mC]*kT*dG*dA*d[5mC]*dT*dA*dG*dT*dG*dA*dA*kT*kG*eG; antisense) [compound 548204]
- % inhibition [8]: 25%

Substance: 548490 (antisense eT*e[5mC]*kT*dG*dG*dT*dT*dA*dG*d[5mC]*d[5mC]*dT*d[5mC]*k[5mC]*kG*eA) [compound 548490]
- % inhibition [11]: 58%

Substance: 547863 (antisense eT*eG*kA*d[5mC]*dT*d[5mC]*d[5mC]*dT*d[5mC]*dT*d[5mC]*dA*dT*kA*kT*e[5mC]) [compound 547863]
- % inhibition [6]: 73%
- % inhibition [7]: 77%

Substance: 548385 (eT*e[5mC]*k[5mC]*dT*dG*dG*dA*dG*dG*d[5mC]*dA*d[5mC]*d[5mC]*kA*kA*eT; antisense) [compound 548385]
- % inhibition [2]: 0%

Substance: 548259 (antisense eG*eT*kG*dA*dT*dG*dA*dA*dA*dG*dT*dA*d[5mC]*kA*kG*e[5mC]) [compound 548259]
- % inhibition [5]: 45%

Substance: 548088 (antisense eA*eA*k[5mC]*dT*dA*dA*dG*dG*dG*dA*d[5mC]*d[5mC]*dA*k[5mC]*k[5mC]*eT) [compound 548088]
- % inhibition [1]: 27%

Substance: 548530 (antisense eA*eT*kA*dA*dT*dA*dG*dA*dG*dG*d[5mC]*dA*dG*k[5mC]*k[5mC]*eA) [compound 548530]
- % inhibition [11]: 50%

Substance: 548359 (antisense e[5mC]*e[5mC]*kT*dA*dG*dT*d[5mC]*d[5mC]*dT*d[5mC]*dA*dA*dG*kT*kT*eT) [compound 548359]
- % inhibition [9]: 0%

Substance: 548082 (eA*eA*kG*d[5mC]*dA*dT*d[5mC]*dT*dT*dT*dT*d[5mC]*d[5mC]*k[5mC]*k[5mC]*e[5mC]; antisense) [compound 548082]
- % inhibition [1]: 42%

Substance: 548408 (antisense eT*eA*kT*d[5mC]*dA*d[5mC]*dT*dG*dT*dA*d[5mC]*dT*dA*kG*kT*eT) [compound 548408]
- % inhibition [2]: 47%

Substance: 548504 (antisense eG*e[5mC]*kA*dG*d[5mC]*dG*dA*dG*d[5mC]*dA*dT*dT*d[5mC]*k[5mC]*kA*eA) [compound 548504]
- % inhibition [11]: 28%

Substance: 547848 (antisense eA*eT*kG*dT*d[5mC]*dT*d[5mC]*dG*dA*dT*dG*dG*d[5mC]*kA*kA*eG) [compound 547848]
- % inhibition [6]: 93%
- % inhibition [7]: 79%

Substance: 547917 (eA*e[5mC]*k[5mC]*d[5mC]*dT*dG*dG*d[5mC]*dA*dA*d[5mC]*dA*dT*k[5mC]*k[5mC]*eA; antisense) [compound 547917]
- % inhibition [6]: 33%
- % inhibition [7]: 54%

Substance: 548383 (eG*eT*k[5mC]*dT*d[5mC]*dG*dA*dT*dG*dG*d[5mC]*dA*dA*kG*k[5mC]*eT; antisense) [compound 548383]
- % inhibition [2]: 49%

Substance: 548417 (antisense eA*e[5mC]*kT*dG*dT*d[5mC]*d[5mC]*dT*dA*dT*dA*dA*d[5mC]*kT*k[5mC]*eT) [compound 548417]
- % inhibition [2]: 24%

Substance: 548356 (antisense eT*eG*kT*dT*dG*dG*dT*d[5mC]*dA*dG*d[5mC]*dA*dT*kT*k[5mC]*eA) [compound 548356]
- % inhibition [9]: 63%

Substance: 548580 (e[5mC]*e[5mC]*kA*dG*dA*dG*d[5mC]*d[5mC]*dT*dT*dG*dA*dT*k[5mC]*kA*eG; antisense) [compound 548580]
- % inhibition [10]: 36%

Substance: 547965 (antisense eG*eG*kG*dT*dT*d[5mC]*dA*dG*dG*dT*dA*dA*dA*kG*kT*eT) [compound 547965]
- % inhibition [3]: 29%

Substance: 548452 (eT*eA*kT*dA*dT*d[5mC]*dA*d[5mC]*dT*dG*dT*dA*d[5mC]*k[5mC]*kT*eA; antisense) [compound 548452]
- % inhibition [2]: 65%

Substance: 548635 (antisense eA*eG*kG*dT*dG*dT*dG*dG*d[5mC]*dG*d[5mC]*dG*d[5mC]*kG*k[5mC]*e[5mC]) [compound 548635]
- % inhibition [4]: 18%
